The record followed here is patent US12435060B2, “Acylamino bridged heterocyclic compound, and composition and application thereof” (BEIJING SCITECH-MQ PHARMACEUTICALS LIMITED, priority 2019, dated 2025).

The experiment has as its system HT29 cells. The experiment is described as follows: Inhibition of cell necrosis (CCK8 method), induced programmed necrosis of HT29 cells. It is filed as cell-based. As to conditions: Homo sapiens, HT-29; rescue from necrosis induced by TNF-α 20 ng/mL, AT-406 1 μM, Z-VAD-FMK 20 μM; 16-20 hours; CCK-8, OD 450 nm. The essentials: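 HT29 cells in McCOY's 5A with 10% FBS were pre-treated for 30 min with compound (9 fourfold steps, 25000 to 0.38 nM final, 0.25% DMSO). Necrosis was then induced with TNF-α 20 ng/mL, AT-406 1 μM and Z-VAD-FMK 20 μM for 16-20 h. Viability was read by CCK-8 OD450, normalized between uninduced and induced wells, and IC50 was curve-fitted.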
Usually IC50 stands for the point on the concentration scale where inhibition reaches its midpoint. A lower IC50 goes with inhibition by little substance. `CCC(O)(CC)CCCOc1ccc(C(F)(F)F)c(-c2ccnc(NC(=O)c3nnc(CC4CCCC4)[nH]3)c2)c1` [Example 262, 5-(cyclopentylmethyl)-N-(4-(5-((4-ethyl-4-hydroxyhexyl)oxy)-2-(trifluoromethyl)phenyl)pyridin-2-yl)-4H-1,2,4-triazole-3-carboxamide]: the IC50 was at most 100 nM. `O=C(Nc1cc(-c2cc(OCC3CCOCC3)ccc2C(F)(F)F)ncn1)c1nnc(CC2CCCCC2)[nH]1` [Example 457, 5-(cyclohexylmethyl)-N-(6-(5-((tetrahydro-2H-pyran-4-yl)methoxy)-2-(trifluoromethyl)phenyl)pyrimidin-4-yl)-4H-1,2,4-triazole-3-carboxamide]: the IC50 was at most 100 nM.

Consider `COc1ccc(OC(C)C)cc1-c1ccnc(NC(=O)c2nnc(Cc3ccccc3)[nH]2)c1` [Example 112, 5-benzyl-N-(4-(5-isopropoxy-2-methoxyphenyl)pyridin-2-yl)-4H-1,2,4-triazole-3-carboxamide], for which the IC50 fell in the range of 1000 to 10000 nM. `Cc1ccc(OCC2CCOCC2)cc1-c1cc(NC(=O)c2nnc(Cc3ccccc3F)[nH]2)ncn1` [Example 442, 5-(2-fluorobenzyl)-N-(6-(2-methyl-5-((tetrahydro-2H-pyran-4-yl)methoxy)phenyl)pyrimidin-4-yl)-4H-1,2,4-triazole-3-carboxamide] showed an IC50 of at most 100 nM. Regarding `Cc1ccc(OCCCC(C)(C)O)cc1-c1cc(NC(=O)c2nnc(Cc3ccccc3F)[nH]2)ncc1Cl` [Example 238, N-(5-chloro-4-(5-((4-hydroxy-4-methylpentyl)oxy)-2-methylphenyl)pyridin-2-yl)-5-(2-fluorobenzyl)-4H-1,2,4-triazole-3-carboxamide], the IC50 is at most 100 nM.

Take `CC(C)(O)CCCOc1ccc(Cl)c(-c2cc(NC(=O)c3nnc(CC4CCCCC4)[nH]3)ncc2F)c1` [Example 410, N-(4-(2-chloro-5-((4-hydroxy-4-methylpentyl)oxy)phenyl)-5-fluoropyridin-2-yl)-5-(cyclohexylmethyl)-4H-1,2,4-triazole-3-carboxamide]: the IC50 is at most 100 nM. Turning to `COCCCOc1ccc(C(F)(F)F)c(-c2ccnc(NC(=O)c3nnc(CC4CCCC4)[nH]3)c2)c1` [Example 297, 5-(cyclopentylmethyl)-N-(4-(5-(3-methoxypropoxy)-2-(trifluoromethyl)phenyl)pyridin-2-yl)-4H-1,2,4-triazole-3-carboxamide], the IC50 is at most 100 nM. Regarding `O=C(Nc1cc(-c2cc(OCCC3CCOCC3)ccc2C(F)(F)F)ncn1)c1nnc(Cc2ccccc2)[nH]1` [Example 458, 5-benzyl-N-(6-(5-(2-(tetrahydro-2H-pyran-4-yl)ethoxy)-2-(trifluoromethyl)phenyl)pyrimidin-4-yl)-4H-1,2,4-triazole-3-carboxamide], the IC50 was at most 100 nM. In turn, `Cc1ccc(OCCOC(C)C)cc1-c1ccnc(NC(=O)c2nnc(Cc3ccccc3)[nH]2)c1` [Example 133, 5-benzyl-N-(4-(5-(2-isopropoxyethoxy)-2-methylphenyl)pyridin-2-yl)-4H-1,2,4-triazole-3-carboxamide] yielded an IC50 of at most 100 nM. `O=C(Nc1cc(-c2cccc3c2CCCO3)ccn1)c1nnc(Cc2ccccc2)[nH]1` [Example 40, 5-benzyl-N-(4-(chroman-5-yl)pyridin-2-yl)-4H-1,2,4-triazole-3-carboxamide] displayed a half-inhibitory concentration (IC50) of 1000 to 10000 nM. The same measure for `Cc1ccc(OCCOCC(C)C)cc1-c1ccnc(NC(=O)c2nnc(Cc3ccccc3)[nH]2)c1` [Example 70, 5-benzyl-N-(4-(5-(2-isobutoxyethoxy)-2-methylphenyl)pyridin-2-yl)-4H-1,2,4-triazole-3-carboxamide]: at most 100 nM; for `Cc1ccc(OCCC2CCOCC2)cc1-c1ccnc(NC(=O)c2nnc(Cc3ccccc3)[nH]2)c1` [Example 87, 5-benzyl-N-(4-(2-methyl-5-(2-(tetrahydro-2H-pyran-4-yl)ethoxy)phenyl)pyridin-2-yl)-4H-1,2,4-triazole-3-carboxamide]: at most 100 nM.
